# From ChEMBL document CHEMBL5584330, “Small Molecular Inhibitors That Target ATM for Drug Discovery: Current Research and Potential Prospective” (J Med Chem, 2024)
# Experiments:
# U2OS [1] = assay: cells; conditions: Homo sapiens
# [2] = molecular target: Phosphatidylinositol 3-kinase catalytic subunit type 3 (Homo sapiens, UniProt Q8NEB9); assay: Binding affinity to Vps34 (unknown origin) assessed as inhibition constant
# [3] = molecular target: T1, Serine-protein kinase ATM (Homo sapiens, UniProt Q13315); assay: Binding affinity to ATM (unknown origin) assessed as inhibition constant
# MCF7 = assay: cells; conditions: Homo sapiens
# Description: Antiproliferative activity against human MCF7 cells assessed as reduction in cell growth
# SW480 = assay: Antiproliferative activity against human SW480 cells assessed as reduction in cell viability incubated for 72 hrs by MTT assay; type: functional, cell-based; conditions: SW480, 72 h
# [4] = molecular target: Phosphatidylinositol 4,5-bisphosphate 3-kinase catalytic subunit alpha isoform (Homo sapiens, UniProt P42336); assay: Inhibition of PI3K alpha (unknown origin)
# U2OS [5] = assay: Cytotoxicity against human U2OS cells assessed as reduction in cell viability incubated for 48 hrs by MTT assay; type: functional, cell-based
# [6] = Half life in human liver microsomes; type: ADME, Microsome
# [7] = Inhibition of PI3K (unknown origin); parameters: species or system Homo sapiens
# [8] = molecular target: Serine/threonine-protein kinase mTOR (Homo sapiens, UniProt P42345); assay: Inhibition of mTOR (unknown origin)
# [9] = molecular target: T1, Serine-protein kinase ATM; assay: Inhibition of ATM (unknown origin)
# Chain of Phosphatidylinositol 3-kinase catalytic subunit type 3 (Q8NEB9 whole entry): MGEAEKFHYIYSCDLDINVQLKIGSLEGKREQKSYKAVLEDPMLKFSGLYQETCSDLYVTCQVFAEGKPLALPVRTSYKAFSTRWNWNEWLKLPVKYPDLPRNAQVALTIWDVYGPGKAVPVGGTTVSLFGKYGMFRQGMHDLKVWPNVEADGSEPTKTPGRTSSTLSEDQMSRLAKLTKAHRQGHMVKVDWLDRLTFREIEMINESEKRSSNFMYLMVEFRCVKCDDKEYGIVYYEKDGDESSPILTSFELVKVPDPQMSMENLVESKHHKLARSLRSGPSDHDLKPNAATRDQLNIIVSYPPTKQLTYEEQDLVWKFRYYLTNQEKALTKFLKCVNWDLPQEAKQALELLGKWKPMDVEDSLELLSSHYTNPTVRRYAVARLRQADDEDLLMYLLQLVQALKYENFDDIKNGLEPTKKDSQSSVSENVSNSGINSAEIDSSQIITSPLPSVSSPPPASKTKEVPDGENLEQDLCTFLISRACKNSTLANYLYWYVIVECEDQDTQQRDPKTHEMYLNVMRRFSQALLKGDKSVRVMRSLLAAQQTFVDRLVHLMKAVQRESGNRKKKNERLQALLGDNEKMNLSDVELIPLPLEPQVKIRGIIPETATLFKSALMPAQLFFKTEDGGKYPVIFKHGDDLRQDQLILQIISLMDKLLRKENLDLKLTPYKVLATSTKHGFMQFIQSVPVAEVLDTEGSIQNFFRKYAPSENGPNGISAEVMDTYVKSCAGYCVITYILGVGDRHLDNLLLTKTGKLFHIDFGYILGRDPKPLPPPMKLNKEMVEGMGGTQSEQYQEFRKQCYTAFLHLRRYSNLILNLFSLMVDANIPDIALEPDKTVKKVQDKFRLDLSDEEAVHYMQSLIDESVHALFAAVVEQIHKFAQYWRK
# T1 sequence (Q13315 whole entry): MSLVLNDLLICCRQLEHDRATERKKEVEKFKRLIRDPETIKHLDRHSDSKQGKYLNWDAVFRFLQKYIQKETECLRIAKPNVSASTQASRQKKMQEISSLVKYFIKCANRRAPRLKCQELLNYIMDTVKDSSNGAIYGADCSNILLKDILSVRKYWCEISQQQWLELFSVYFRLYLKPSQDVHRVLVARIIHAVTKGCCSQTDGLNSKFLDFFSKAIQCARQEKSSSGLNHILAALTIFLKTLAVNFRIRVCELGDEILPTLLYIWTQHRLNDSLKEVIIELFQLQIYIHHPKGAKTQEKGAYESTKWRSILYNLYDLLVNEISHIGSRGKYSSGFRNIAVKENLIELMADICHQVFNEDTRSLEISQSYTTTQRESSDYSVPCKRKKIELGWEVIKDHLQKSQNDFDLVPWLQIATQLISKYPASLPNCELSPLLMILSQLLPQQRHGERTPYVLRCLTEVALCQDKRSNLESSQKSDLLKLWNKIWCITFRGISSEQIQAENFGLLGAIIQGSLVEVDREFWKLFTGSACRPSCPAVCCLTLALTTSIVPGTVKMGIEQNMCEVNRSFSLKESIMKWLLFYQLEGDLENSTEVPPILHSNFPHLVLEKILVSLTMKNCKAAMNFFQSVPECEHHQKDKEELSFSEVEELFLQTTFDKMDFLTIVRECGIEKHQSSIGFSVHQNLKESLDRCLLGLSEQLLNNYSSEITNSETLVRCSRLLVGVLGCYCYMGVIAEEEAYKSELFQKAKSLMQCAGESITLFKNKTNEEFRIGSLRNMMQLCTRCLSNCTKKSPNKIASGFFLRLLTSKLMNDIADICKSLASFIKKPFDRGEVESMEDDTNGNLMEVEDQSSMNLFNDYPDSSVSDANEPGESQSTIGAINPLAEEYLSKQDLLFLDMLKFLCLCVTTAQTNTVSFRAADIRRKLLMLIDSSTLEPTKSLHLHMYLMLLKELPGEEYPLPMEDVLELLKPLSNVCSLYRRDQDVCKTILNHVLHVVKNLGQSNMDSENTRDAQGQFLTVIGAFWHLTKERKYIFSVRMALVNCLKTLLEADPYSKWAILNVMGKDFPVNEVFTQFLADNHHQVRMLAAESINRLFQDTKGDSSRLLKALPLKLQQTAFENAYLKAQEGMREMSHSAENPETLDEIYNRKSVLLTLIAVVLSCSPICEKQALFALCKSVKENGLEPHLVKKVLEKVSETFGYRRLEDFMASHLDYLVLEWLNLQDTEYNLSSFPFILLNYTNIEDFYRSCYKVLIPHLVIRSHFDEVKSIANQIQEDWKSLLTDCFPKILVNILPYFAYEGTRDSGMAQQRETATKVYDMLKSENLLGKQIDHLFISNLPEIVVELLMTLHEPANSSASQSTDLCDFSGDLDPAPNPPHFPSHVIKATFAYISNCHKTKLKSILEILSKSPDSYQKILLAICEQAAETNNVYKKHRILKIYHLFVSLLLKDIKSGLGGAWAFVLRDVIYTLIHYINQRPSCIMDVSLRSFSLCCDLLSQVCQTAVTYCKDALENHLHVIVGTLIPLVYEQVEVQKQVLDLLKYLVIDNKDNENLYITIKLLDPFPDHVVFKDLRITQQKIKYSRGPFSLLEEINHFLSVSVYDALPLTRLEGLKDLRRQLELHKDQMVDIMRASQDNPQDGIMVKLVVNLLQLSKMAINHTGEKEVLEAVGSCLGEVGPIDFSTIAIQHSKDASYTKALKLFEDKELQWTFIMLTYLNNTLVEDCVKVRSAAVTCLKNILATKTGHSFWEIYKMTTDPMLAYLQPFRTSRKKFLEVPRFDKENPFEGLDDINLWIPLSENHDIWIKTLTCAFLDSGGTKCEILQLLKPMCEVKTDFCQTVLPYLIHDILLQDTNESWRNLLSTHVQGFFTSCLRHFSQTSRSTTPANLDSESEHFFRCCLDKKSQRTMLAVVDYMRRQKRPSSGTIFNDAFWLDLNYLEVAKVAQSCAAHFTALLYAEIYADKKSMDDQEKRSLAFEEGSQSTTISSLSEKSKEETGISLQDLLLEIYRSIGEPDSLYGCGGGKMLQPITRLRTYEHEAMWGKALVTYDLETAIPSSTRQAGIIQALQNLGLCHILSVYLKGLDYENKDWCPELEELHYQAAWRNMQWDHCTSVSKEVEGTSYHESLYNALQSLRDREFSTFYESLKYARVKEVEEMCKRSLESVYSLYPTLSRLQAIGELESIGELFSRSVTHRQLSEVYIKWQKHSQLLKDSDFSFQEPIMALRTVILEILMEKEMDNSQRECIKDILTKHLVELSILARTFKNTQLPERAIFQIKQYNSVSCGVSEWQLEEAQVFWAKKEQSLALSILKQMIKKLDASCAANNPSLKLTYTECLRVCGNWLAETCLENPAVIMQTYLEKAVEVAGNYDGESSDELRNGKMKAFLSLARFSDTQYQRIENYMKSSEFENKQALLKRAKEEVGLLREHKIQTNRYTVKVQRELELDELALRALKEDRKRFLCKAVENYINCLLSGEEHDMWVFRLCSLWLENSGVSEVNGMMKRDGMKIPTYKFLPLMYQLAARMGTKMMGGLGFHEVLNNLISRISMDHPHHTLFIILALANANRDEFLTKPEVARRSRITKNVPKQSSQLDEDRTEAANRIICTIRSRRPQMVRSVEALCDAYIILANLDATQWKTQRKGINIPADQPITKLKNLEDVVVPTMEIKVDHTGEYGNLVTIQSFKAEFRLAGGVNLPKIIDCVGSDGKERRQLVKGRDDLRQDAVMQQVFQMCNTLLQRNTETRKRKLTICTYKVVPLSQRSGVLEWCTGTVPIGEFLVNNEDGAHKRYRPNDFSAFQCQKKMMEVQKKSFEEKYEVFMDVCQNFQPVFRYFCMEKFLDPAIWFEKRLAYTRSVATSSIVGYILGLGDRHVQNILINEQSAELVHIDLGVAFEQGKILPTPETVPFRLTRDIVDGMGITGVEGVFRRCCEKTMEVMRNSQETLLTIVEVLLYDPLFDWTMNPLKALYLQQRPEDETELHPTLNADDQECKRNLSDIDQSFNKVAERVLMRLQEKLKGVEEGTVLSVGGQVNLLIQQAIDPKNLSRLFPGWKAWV
# Chain of Phosphatidylinositol 4,5-bisphosphate 3-kinase catalytic subunit alpha isoform (P42336 whole entry, canonical isoform): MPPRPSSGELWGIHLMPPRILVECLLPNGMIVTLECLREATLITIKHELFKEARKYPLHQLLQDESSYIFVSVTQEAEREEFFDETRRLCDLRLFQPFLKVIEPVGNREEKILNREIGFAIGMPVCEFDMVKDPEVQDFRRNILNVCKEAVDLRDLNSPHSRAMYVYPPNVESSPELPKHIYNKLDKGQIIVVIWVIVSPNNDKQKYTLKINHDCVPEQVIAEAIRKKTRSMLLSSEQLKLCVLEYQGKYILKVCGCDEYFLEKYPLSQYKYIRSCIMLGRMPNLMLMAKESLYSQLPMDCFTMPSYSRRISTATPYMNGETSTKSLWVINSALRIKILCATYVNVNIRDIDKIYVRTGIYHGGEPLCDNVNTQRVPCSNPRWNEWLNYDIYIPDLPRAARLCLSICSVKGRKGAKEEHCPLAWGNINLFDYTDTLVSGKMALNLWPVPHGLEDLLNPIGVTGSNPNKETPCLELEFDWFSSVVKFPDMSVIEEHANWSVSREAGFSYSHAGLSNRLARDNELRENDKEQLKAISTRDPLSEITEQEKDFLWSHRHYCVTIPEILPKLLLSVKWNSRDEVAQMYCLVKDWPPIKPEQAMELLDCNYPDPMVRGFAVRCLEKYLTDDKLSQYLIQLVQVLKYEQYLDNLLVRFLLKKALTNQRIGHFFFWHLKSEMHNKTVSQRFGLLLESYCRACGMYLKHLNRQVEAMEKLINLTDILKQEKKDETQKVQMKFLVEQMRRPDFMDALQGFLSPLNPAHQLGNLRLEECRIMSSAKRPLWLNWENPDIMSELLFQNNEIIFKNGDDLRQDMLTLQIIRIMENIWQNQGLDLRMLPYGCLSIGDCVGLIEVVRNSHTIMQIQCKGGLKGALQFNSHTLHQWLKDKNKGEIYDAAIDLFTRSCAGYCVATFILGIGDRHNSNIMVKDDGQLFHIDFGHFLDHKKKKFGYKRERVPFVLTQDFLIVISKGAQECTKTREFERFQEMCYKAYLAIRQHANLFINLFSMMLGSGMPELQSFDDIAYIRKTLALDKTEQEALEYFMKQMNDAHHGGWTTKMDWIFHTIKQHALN
SMILES,IC50 (U2OS [1]),Ki [2],Ki [3],also measured
O=c1cc(N2CCOCC2)cc(N2CCCCC[C@H]2Cc2ccccc2)[nH]1,230 nM,50 nM,1 nM,
COCCOc1cc2c(-n3cc(-c4ccccn4)nc3N)ncnc2cc1OC,,,,IC50 (MCF7): 1200 nM
COc1cc2ncnc(-n3cc(-c4ccccn4)nc3N)c2cc1OC,,,,IC50 (MCF7): 370 nM
CNC(=O)c1ccc(-c2cnc3cnc(-c4ccccc4)cn23)cc1,,,,IC50 (SW480): 6200 nM
COc1ccc2c(c1)Cc1cccc(-c3cc(=O)cc(N4CCOCC4)o3)c1S2,,,,IC50 [4]: 5 nM; IC50 (U2OS [5]): 910 nM
CN1CCN(CCC(=O)Nc2ccc3c(c2)Sc2cccc(-c4cc(=O)cc(N5CCOCC5)o4)c2S3)CC1,,,,IC50 [4]: 3 nM
CC(C)NC(=O)N(C)c1cnc2ccc(-c3ccc(OCCCN4CCCCC4)nc3)cc2n1,,,,half-life [6]: 12.8 h
C[C@@H]1CN(CC(=O)Nc2ccc3c(c2)Cc2cccc(-c4cc(=O)cc(N5CCOCC5)o4)c2S3)C[C@H](C)O1,,,,IC50 [7]: 6 nM
O=c1cc(N2CCOCC2)cc(N2C[C@@H]3C[C@@H]3[C@H]2Cc2ccccc2)[nH]1,300 nM,90 nM,2 nM,
C[C@H]1CCN(c2nc(N3CCOCC3)cc(=O)[nH]2)[C@@H]1Cc1ccccc1,90 nM,6 nM,0.4 nM,
O=c1cc(N2CCOCC2)cc(N2CC3CC3[C@H]2Cc2ccccc2)[nH]1 (some centres not stated),3400 nM,9 nM,6 nM,
C=C1C(=O)OCC1C(=O)N1Cc2cc3ccccc3nc2C1 (configuration not stated),,,,IC50 [8]: 7000 nM; IC50 [9]: 600 nM
